Reference: the supplement of paper PMC10307832

How the values were obtained:
Experiment in all cases: relative viability (nuclei count vs DMSO), 5 days (fraction); higher = more cells survive
Neratinib + Navitoclax = compound: CCOc1cc2ncc(C#N)c(Nc3ccc(OCc4ccccn4)c(Cl)c3)c2cc1NC(=O)/C=C/CN(C)C [Neratinib] + CC1(C)CCC(c2ccc(Cl)cc2)=C(CN2CCN(c3ccc(C(=O)NS(=O)(=O)c4ccc(N[C@H](CCN5CCOCC5)CSc5ccccc5)c(S(=O)(=O)C(F)(F)F)c4)cc3)CC2)C1 [Navitoclax] (partner 0.5 µM)
Outline: (§1)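 Medians of duplicate plates are given as relative viability. That measure is the nuclei count in treated wells divided by the count in vehicle wells. Counts were taken on 4× images of lung cancer cell lines in 1536-well plates, 5 days after pin-tool dosing the day after seeding with one drug alone or a fixed anchor-drug dose plus five library-drug doses (not always all listed) in √10 steps.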

Neratinib + Crizotinib = compound: CCOc1cc2ncc(C#N)c(Nc3ccc(OCc4ccccn4)c(Cl)c3)c2cc1NC(=O)/C=C/CN(C)C [Neratinib] + C[C@@H](Oc1cc(-c2cnn(C3CCNCC3)c2)cnc1N)c1c(Cl)ccc(F)c1Cl [Crizotinib] (partner 1 µM)
Outline: as §1

Neratinib + Tozasertib = compound: CCOc1cc2ncc(C#N)c(Nc3ccc(OCc4ccccn4)c(Cl)c3)c2cc1NC(=O)/C=C/CN(C)C [Neratinib] + Cc1cc(Nc2cc(N3CCN(C)CC3)nc(Sc3ccc(NC(=O)C4CC4)cc3)n2)n[nH]1 [Tozasertib] (partner 0.1 µM)
Outline: as §1

Neratinib + Vorinostat = compound: CCOc1cc2ncc(C#N)c(Nc3ccc(OCc4ccccn4)c(Cl)c3)c2cc1NC(=O)/C=C/CN(C)C [Neratinib] + O=C(CCCCCCC(=O)Nc1ccccc1)NO [Vorinostat] (partner 1 µM)
Outline: as §1

Cell Line	relative viability (Neratinib + Navitoclax; first compound 0.01 µM)	relative viability (Neratinib + Navitoclax; first compound 0.03162 µM)	relative viability (Neratinib + Navitoclax; first compound 0.1 µM)	relative viability (Neratinib + Navitoclax; first compound 0.3162 µM)	relative viability (Neratinib + Navitoclax; first compound 1 µM)	relative viability (Neratinib + Crizotinib; first compound 0.01 µM)	relative viability (Neratinib + Crizotinib; first compound 0.03162 µM)	relative viability (Neratinib + Crizotinib; first compound 0.1 µM)	relative viability (Neratinib + Crizotinib; first compound 1 µM)	relative viability (Neratinib + Tozasertib; first compound 0.01 µM)	relative viability (Neratinib + Tozasertib; first compound 0.03162 µM)	relative viability (Neratinib + Tozasertib; first compound 0.1 µM)	relative viability (Neratinib + Tozasertib; first compound 0.3162 µM)	relative viability (Neratinib + Tozasertib; first compound 1 µM)	relative viability (Neratinib + Vorinostat; first compound 0.01 µM)	relative viability (Neratinib + Vorinostat; first compound 0.03162 µM)	relative viability (Neratinib + Vorinostat; first compound 0.1 µM)	relative viability (Neratinib + Vorinostat; first compound 0.3162 µM)	relative viability (Neratinib + Vorinostat; first compound 1 µM)	relative viability (Neratinib + Crizotinib; first compound 0.3162 µM)
SK-MES-1	1.38	1.3	1.06	0.651	0.432	1.02	0.998	0.969	0.314	0.947	0.996	0.955	0.631	0.21	1.12	1.08	1.05	0.925	0.29	
NCI-H1355	0.912	1.06	0.825	0.843	0.618	1.12	1.11	0.949	0.31	0.541	0.548	0.482	0.436	0.282	0.724	0.649	0.591	0.602	0.447	0.846
NCI-H596	0.998	1.01	0.954	1.04	0.787	0.944	1.09	1.04	0.861	0.862	0.961	0.736	0.857	0.601	0.5	0.641	0.631	0.622	0.73	0.903
NCI-H2405	0.904	0.887	0.784	0.785	0.188	0.873	0.879	0.834	0.781	0.808	0.852	0.712	0.72	0.547	1.32	1.18	0.955	1.04	0.891	0.765
LCLC-97TM1	0.402	0.381	0.633	0.511	0.294	0.344	0.33	0.314	0.136	0.239	0.189	0.298	0.238	0.121	0.985	0.822	0.762		0.48	0.242
EMC-BAC-2	1.16	1.47	1.01	0.993	0.811	0.828	0.817	0.635	0.407	0.326	0.352	0.317	0.314	0.188	0.898	0.565	0.447	0.46	0.351	0.709
NCI-H1975	1.26	1.33	0.788	0.394	0.238	1.14	1.05	0.752	0.193	0.869		0.698	0.324	0.106	0.764	0.822	0.723	0.354	0.264	0.442
BEN	0.0747	0.0585	0.0644	0.0753	0.0586	0.849	1.1	0.869	0.509	0.559	0.576	0.416	0.517	0.447	0.562	0.596	0.606	0.552	0.43	0.762
NCI-H2347	0.819	0.945	0.68	0.786	0.698	0.693	0.743	0.629	0.464	0.539	0.624		0.541	0.384	0.64	0.715	0.55	0.634	0.407	0.675
CAL-12T	1.27	1.59	0.94	0.632	0.232	0.84	0.945	0.408	0.206	0.487	0.288	0.249	0.178	0.122	0.802	0.835	0.553	0.436	0.198	0.256
EPLC-272H	1.09	0.991	0.851	0.822	0.834	0.997	0.964	0.799	0.553		0.204	0.267	0.269	0.203	0.287	0.498	0.415	0.332	0.269	0.613
NCI-H3122	1.05	1.02	1.05	1.03	0.407	0.291	0.284	0.222	0.198	0.437	0.422	0.388	0.375	0.135	1.04	1.09	1.02	0.992	0.609	0.188
HCC-15	0.697	0.72	0.666	0.625		0.843	0.906	0.829	0.648	0.673	0.453	0.39	0.341	0.174	0.954	0.85	0.811	0.724	0.672	0.707
SW 1573	1.32	1.15	0.862	0.87	0.804	0.91	0.929	0.892	0.546	0.203	0.152	0.194	0.177	0.122	0.797	0.831	0.612	0.623	0.38	0.628
NCI-H1944	1.03	1	0.871	0.814	0.677	1.31	0.991	0.99	0.348	0.255	0.248	0.221	0.218	0.16	0.657	0.544	0.474	0.501	0.456	0.762
HARA	1.17	1.12	0.562	0.922	0.644	1.19	1.09	0.731	0.489	0.106	0.104	0.0889	0.11	0.0872	0.584	0.656		0.577	0.355	0.782
